Test results published in patent US20210085640A1, “ACYLATED CATECHIN POLYPHENOLS AND METHODS OF THEIR USE FOR THE TREATMENT OF CANCER” (Flagship Pioneering Innovations V, Inc., priority 2018, published 2021).

Assays:
[1] = Stability in Simulated Gastric Fluid (SGF); format: in vitro ADME; settings: SGF pH 1.6 with pepsin, 1 μM, 37° C.
Procedure: Stability of acylated active agents in Simulated Gastric Fluid (SGF). This assay was used to assess the stability of an acylated active agent in a stomach.
Medium was prepared by dissolving 2 g of sodium chloride in 0.6 L in ultrapure water (MilliQ®, Millipore Sigma, Darmstadt, Germany). The pH was adjusted to 1.6 with 1N hydrochloric acid, and the volume was then adjusted to 1 L with purified water.
60 mg FaSSIF powder (Biorelevant™, London, UK) were dissolved in 500 mL buffer (above). Pepsin was added (0.1 mg/mL) (Millipore Sigma, Darmstadt, Germany), and the solution was stirred. The resulting SGF media were used fresh for each experiment.
(§1) Test compounds were dissolved in DMSO stock to 1 mM. An aliquot of the DMSO stock solution was removed and diluted in the SGF Media in 15 mL falcon tubes to generate a total compound concentration of 1 μM. A 1 mL aliquot was immediately removed and diluted once with 1 volume of acetonitrile for T0 timepoint. The mixture was sealed and mixed at 37° C. in an incubator. Aliquots (1 mL) were removed at regular intervals and immediately quenched by the addition of 1 volume of acetonitrile. The resulting samples were analyzed by LC/MS to determine degradation rates

[2] = Stability in Simulated Intestinal Fluid (SIF); format: in vitro ADME
Procedure: SIF Stability of acylated active agents in Simulated Intestinal Fluid (SIF). This assay was used to assess the stability of an acylated active agent in a small intestine.
Phosphate buffer was prepared by dissolving 0.42 g of sodium hydroxide pellets and 3.95 g of monobasic sodium phosphate monohydrate and 6.19 g of sodium chloride in ultrapure water (MilliQ®, Millipore Sigma, Darmstadt, Germany). The pH was adjusted to 6.7 using aq. HCl and aq. NaOH, as necessary, and the solution was diluted with ultrapure water to produce 1 L of the pH 6.7 buffer.
112 mg FaSSIF powder (Biorelevant™, London, UK) was dissolved in 50 mL of the pH 6.7 buffer. 2 to 3 mL of the resulting solution were then added to 500 mg pancreatin (Millipore Sigma, Darmstadt, Germany). The resulting mixture was agitated by finger tapping the vessel containing the mixture until milky suspension formed. At this time, the remainder of the 50 mL FaSSiF/pH 6.7 buffer solution was added. The resulting suspension was flipped upside down 10 times to produce SIF, which was used fresh.
as §1, with “SIF media” for “SGF Media”, “produce” for “generate”, “mixture with a tested” for “total”, “agitated” for “mixed”, “rates.” for “rates”

T24 bladder cancer cells = test: Cancer cell survival (CellTiter-Glo), T24; format: cell-based; settings: 72 h
In short: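 T24 cells seeded at 4×10^3 cells/well overnight, then exposed 72 h at 37 C, 5% CO2 to nine concentrations in triplicate. Survival measured by CellTiter-Glo luminescence relative to untreated and medium controls; IC50 derived.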

[3] = tested on: Daudi lymphoma cancer cells; test: Cancer cell survival (CellTiter-Glo), Daudi; format: cell-based; settings: 72 h
In short: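 Daudi cells (4×10^3/well) were exposed for 72 h at 37 °C to nine concentrations of compound, added as 10× solutions spanning 1 μM–10 mM (fatty acids) or 100 nM–1 mM (others). CellTiter-Glo luminescence gave % survival versus untreated, medium-blank corrected; IC50 derived.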

MCF7 breast cancer cells = test: Cancer cell survival (CellTiter-Glo), MCF7; format: cell-based; settings: 72 h
In short: (§2)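 Log-phase cells are plated at 4×10^3 per well and incubated overnight. Compounds, prepared in media as 10× solutions, are then added and the plates held 72 h at 37 C. Viability is measured by CellTiter-Glo luminescence, and IC50 is derived from survival relative to untreated controls.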

[4] = tested on: HCT 116 colorectal cancer cells; test: Cancer cell survival (CellTiter-Glo), HCT 116; format: cell-based; settings: HCT 116 cells, 72 h
In short: as §2

A549 lung cancer cells = test: Cancer cell survival (CellTiter-Glo), A549; format: cell-based; settings: 72 h
In short: as §2

[5] = tested on: PC-3 prostate cancer cells; test: Cancer cell survival (CellTiter-Glo), PC-3; format: cell-based; settings: PC-3 cells, 72 h
In short: as §2

A-431 skin cancer cells = test: Cancer cell survival (CellTiter-Glo), A-431; format: cell-based; set-up: Cell survival at given concentration: unit not given here; settings: A-431 cells, 72 h
In short: as §2

AGS stomach cancer cells = test: Cancer cell survival (CellTiter-Glo), AGS; format: cell-based; set-up: Cell survival at given concentration: unit not given here
In short: as §2

## CCC(=O)Oc1cc(OC(=O)CC)c2c(=O)c(OC(=O)CC)c(-c3cc(OC(=O)CC)c(OC(=O)CC)c(OC(=O)CC)c3)oc2c1 [Compound 13, [4-oxo-3,5-di(propanoyloxy)-2-[3,4,5-tri(propanoyloxy)phenyl]chromen-7-yl] propanoate]
[1]
  Assay 1 (SGF) (% Remaining @ 1 hours): C (>75% of the tested compound remaining)
[2]; SIF pH 6.7 with pancreatin, 1 μM, 37° C., 4 hours
  Assay 2 (SIF) (% @ Remaining 4 hours): A (<25% of the tested compound remaining)
[2]; conclusion drawn from Table 1 (SGF and SIF stability)
  selective delivery to the upper intestine: can be selectively delivered to the upper intestine

## CC(=O)Oc1cc(OC(C)=O)c2c(=O)c(OC(C)=O)c(-c3cc(OC(C)=O)c(OC(C)=O)c(OC(C)=O)c3)oc2c1 [Compound 11, [3,5-diacetoxy-4-oxo-2-(3,4,5-triacetoxyphenyl)chromen-7-yl] acetate]
[1]
  Assay 1 (SGF) (% Remaining @ 1 hours): C (>75% of the tested compound remaining)

## CCCC(=O)O[C@H](C)CCOC(=O)C[C@@H](C)OC(=O)CCC [Compound 23, (R)-3-(butyryloxy)butyl (R)-3-(butyryloxy)butanoate]
[1]
  Assay 1 (SGF) (% Remaining @ 1 hours): C (>75% of the tested compound remaining)

## CCC(=O)Oc1cc(OC(=O)CC)c2c(c1)O[C@H](c1cc(OC(=O)CC)c(OC(=O)CC)c(OC(=O)CC)c1)[C@H](OC(=O)c1cc(OC(=O)CC)c(OC(=O)CC)c(OC(=O)CC)c1)C2 [Compound 15, [(2R,3R)-5,7-di(propanoyloxy)-2-[3,4,5-tri(propanoyloxy)phenyl]chroman-3-yl] 3,4,5-tri(propanoyloxy)benzoate]
[1]
  Assay 1 (SGF) (% Remaining @ 1 hours): C (>75% of the tested compound remaining)

## CC(=O)Oc1ccc(-c2oc3cc(OC(C)=O)cc(OC(C)=O)c3c(=O)c2OC(C)=O)cc1 [Compound 8, [4-(3,5,7-triacetoxy-4-oxo-chromen-2-yl)phenyl] acetate]
[1]
  Assay 1 (SGF) (% Remaining @ 1 hours): C (>75% of the tested compound remaining)

## CC(=O)O [acetate]
T24 bladder cancer cells; 1 μM, Table 3.2
  Cell survival at given concentration: 0.97
T24 bladder cancer cells; 3 μM, Table 3.2
  Cell survival at given concentration: 0.97
T24 bladder cancer cells; 10 μM, Table 3.2
  Cell survival at given concentration: 1.04
T24 bladder cancer cells; 32 μM, Table 3.2
  Cell survival at given concentration: 0.97
T24 bladder cancer cells; 100 μM, Table 3.2
  Cell survival at given concentration: 1.00
T24 bladder cancer cells; 317 μM
  Cell survival at given concentration: 1.01
T24 bladder cancer cells; 1 mM
  Cell survival at given concentration: 0.99
T24 bladder cancer cells; 3 mM
  Cell survival at given concentration: 0.97
T24 bladder cancer cells; 10 mM
  Cell survival at given concentration: 0.91
[3]; 1 μM, Table 4.2
  Cell survival at given concentration: 1.00
[3]; 3 μM, Table 4.2
  Cell survival at given concentration: 0.99
[3]; 10 μM, Table 4.2
  Cell survival at given concentration: 0.99
[3]; 32 μM, Table 4.2
  Cell survival at given concentration: 1.01
[3]; 100 μM, Table 4.2
  Cell survival at given concentration: 1.02
[3]; 317 μM
  Cell survival at given concentration: 1.02
[3]; 1 mM
  Cell survival at given concentration: 1.01
[3]; 3 mM
  Cell survival at given concentration: 0.97
[3]; 10 mM
  Cell survival at given concentration: 0.75
MCF7 breast cancer cells; 1 μM, Table 5.2
  Cell survival at given concentration: 1.01
MCF7 breast cancer cells; 3 μM, Table 5.2
  Cell survival at given concentration: 1.02
MCF7 breast cancer cells; 10 μM, Table 5.2
  Cell survival at given concentration: 0.98
MCF7 breast cancer cells; 32 μM, Table 5.2
  Cell survival at given concentration: 1.03
MCF7 breast cancer cells; 100 μM, Table 5.2
  Cell survival at given concentration: 1.02
MCF7 breast cancer cells; 317 μM
  Cell survival at given concentration: 1.04
MCF7 breast cancer cells; 1 mM
  Cell survival at given concentration: 0.99
MCF7 breast cancer cells; 3 mM
  Cell survival at given concentration: 0.99
MCF7 breast cancer cells; 10 mM
  Cell survival at given concentration: 0.91
[4]; 1 μM, Table 6.2
  Cell survival at given concentration: 1.01
[4]; 3 μM, Table 6.2
  Cell survival at given concentration: 1.03
[4]; 10 μM, Table 6.2
  Cell survival at given concentration: 1.03
[4]; 32 μM, Table 6.2
  Cell survival at given concentration: 1.03
[4]; 100 μM, Table 6.2
  Cell survival at given concentration: 1.06
[4]; 317 μM
  Cell survival at given concentration: 1.02
[4]; 1 mM
  Cell survival at given concentration: 1.02
[4]; 3 mM
  Cell survival at given concentration: 1.00
[4]; 10 mM
  Cell survival at given concentration: 0.84
[4]; Table 6.2
  IC50: > 10 mM
A549 lung cancer cells; 1 μM, Table 7.2
  Cell survival at given concentration: 1.00
A549 lung cancer cells; 3 μM, Table 7.2
  Cell survival at given concentration: 1.01
A549 lung cancer cells; 10 μM, Table 7.2
  Cell survival at given concentration: 1.00
A549 lung cancer cells; 32 μM, Table 7.2
  Cell survival at given concentration: 1.06
A549 lung cancer cells; 100 μM, Table 7.2
  Cell survival at given concentration: 1.09
A549 lung cancer cells; 317 μM
  Cell survival at given concentration: 1.02
A549 lung cancer cells; 1 mM
  Cell survival at given concentration: 1.03
A549 lung cancer cells; 3 mM
  Cell survival at given concentration: 1.03
A549 lung cancer cells; 10 mM
  Cell survival at given concentration: 1.00
[5]; 1 μM, Table 8.2
  Cell survival at given concentration: 1.05
[5]; 3 μM, Table 8.2
  Cell survival at given concentration: 1.00
[5]; 10 μM, Table 8.2
  Cell survival at given concentration: 1.02
[5]; 32 μM, Table 8.2
  Cell survival at given concentration: 1.03
[5]; 100 μM, Table 8.2
  Cell survival at given concentration: 1.07
[5]; 317 μM
  Cell survival at given concentration: 1.05
[5]; 1 mM
  Cell survival at given concentration: 1.01
[5]; 3 mM
  Cell survival at given concentration: 1.00
[5]; 10 mM
  Cell survival at given concentration: 0.88
[5]; Table 8.2
  IC50: > 10 mM
A-431 skin cancer cells; 1 μM, Table 9.2
  Cell survival at given concentration: 1.02
A-431 skin cancer cells; 3 μM, Table 9.2
  Cell survival at given concentration: 1.03
A-431 skin cancer cells; 10 μM, Table 9.2
  Cell survival at given concentration: 1.06
A-431 skin cancer cells; 32 μM, Table 9.2
  Cell survival at given concentration: 1.03
A-431 skin cancer cells; 100 μM, Table 9.2
  Cell survival at given concentration: 1.05
A-431 skin cancer cells; 317 μM
  Cell survival at given concentration: 1.05
A-431 skin cancer cells; 1 mM
  Cell survival at given concentration: 1.05
A-431 skin cancer cells; 3 mM
  Cell survival at given concentration: 1.02
A-431 skin cancer cells; 10 mM
  Cell survival at given concentration: 0.99
AGS stomach cancer cells; 1 μM, Table 10.2
  Cell survival at given concentration: 0.99
AGS stomach cancer cells; 3 μM, Table 10.2
  Cell survival at given concentration: 1.00
AGS stomach cancer cells; 10 μM, Table 10.2
  Cell survival at given concentration: 1.02
AGS stomach cancer cells; 32 μM, Table 10.2
  Cell survival at given concentration: 1.03
AGS stomach cancer cells; 100 μM, Table 10.2
  Cell survival at given concentration: 1.03
AGS stomach cancer cells; 317 μM
  Cell survival at given concentration: 1.03
AGS stomach cancer cells; 1 mM
  Cell survival at given concentration: 1.02
AGS stomach cancer cells; 3 mM
  Cell survival at given concentration: 1.03
AGS stomach cancer cells; 10 mM
  Cell survival at given concentration: 1.02
